# Assay results taken from PubChem BioAssay AID330 (DTP/NCI, 2004).
# Values joined by “and” are separate entries in the source; they are usually repeats but may differ in a detail not shown here. Equal values may be shown once. Toxic doses and inconclusive results are not listed.
# Tested on: P388 leukemia ip, CD2F1 mice, survival T/C
# Test: NCI In Vivo Anticancer Drug Screen. Data for tumor model P388 Leukemia (intraperitoneal) in CD2F1 (CDF1) mice
# Settings: endpoint: median survival time, higher = longer survival
# Summary of the method: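 Mice carrying the transplanted tumor received test compound or vehicle. Survival was recorded in each group, and the value is the treated-group measurement divided by that of the vehicle-treated control group.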
# [1] = dose: 25.0 mg/kg/injection, schedule: Q01DX005 (ip), vehicle: Klucel (hydroxypropylcellulose) (HPC)
# [2] = dose: 50.0 mg/kg/injection, schedule: Q01DX005 (ip), vehicle: Klucel (hydroxypropylcellulose) (HPC)
# [3] = dose: 100.0 mg/kg/injection, schedule: Q01DX005 (ip), vehicle: Klucel (hydroxypropylcellulose) (HPC)
# [4] = dose: 200.0 mg/kg/injection, schedule: Q01DX005 (ip), vehicle: Klucel (hydroxypropylcellulose) (HPC)
# [5] = dose: 50.0 mg/kg/injection, schedule: Q01DX009 (ip), vehicle: saline
# [6] = dose: 100.0 mg/kg/injection, schedule: Q01DX009 (ip), vehicle: saline
# [7] = dose: 200.0 mg/kg/injection, schedule: Q01DX009 (ip), vehicle: saline
# [8] = dose: 6.25 mg/kg/injection, schedule: Q01DX005 (ip), vehicle: Klucel (hydroxypropylcellulose) (HPC)
# [9] = dose: 12.5 mg/kg/injection, schedule: Q01DX005 (ip), vehicle: Klucel (hydroxypropylcellulose) (HPC)
# [10] = dose: 60.0 mg/kg/injection, schedule: Q01DX005 (ip), vehicle: saline with Tween-80
# [11] = dose: 120.0 mg/kg/injection, schedule: Q01DX005 (ip), vehicle: saline with Tween-80
# [12] = dose: 6.25 mg/kg/injection, schedule: Q01DX009 (ip), vehicle: saline with Tween-80
# [13] = dose: 12.5 mg/kg/injection, schedule: Q01DX009 (ip), vehicle: saline with Tween-80
# [14] = dose: 25.0 mg/kg/injection, schedule: Q01DX009 (ip), vehicle: saline with Tween-80
smiles,measurement,setting,value
Cc1ccc(N2[C@H]3CCCN3c3ccc(C)cc3[C@@H]2C(F)(F)F)cc1,T/C,"dose: 50.0 mg/kg/injection, schedule: Q01DX005 (ip), vehicle: saline with Tween-80",110 % of control
same,T/C,"dose: 100.0 mg/kg/injection, schedule: Q01DX005 (ip), vehicle: saline with Tween-80",100 % of control
same,T/C,"dose: 200.0 mg/kg/injection, schedule: Q01DX005 (ip), vehicle: saline with Tween-80",100 % of control
CCC(=O)[O][Bi]([c]1ccccc1)[c]1ccccc1,T/C,[1],99 % of control and 116 % of control
same,T/C,[2],111 % of control and 114 % of control and 115 % of control
same,T/C,[3],106 % of control and 124 % of control
same,T/C,[4],168 % of control
O=[N+]([O-])c1cccc(C(Nc2nncs2)Nc2nncs2)c1,T/C,[2],106 % of control and 96 % of control
same,T/C,[3],95 % of control
same,T/C,[4],94 % of control
same,T/C,"dose: 400.0 mg/kg/injection, schedule: Q01DX005 (ip), vehicle: Klucel (hydroxypropylcellulose) (HPC)",96 % of control
CC(=O)c1ccc(C(C)=O)cc1,T/C,[5],101 % of control
same,T/C,[6],95 % of control
same,T/C,[7],109 % of control
CCCCN(CCCC)C(=N)c1ccccc1Cl,T/C,[8],103 % of control
same,T/C,[9],99 % of control
CCO/C(CC#N)=C(/C#N)C(=O)Nc1ccc(OC)cc1,T/C,[10],95 % of control
same,T/C,[11],93 % of control
same,T/C,"dose: 240.0 mg/kg/injection, schedule: Q01DX005 (ip), vehicle: saline with Tween-80",89 % of control
Cc1ccc(NN=O)nc1,T/C,"dose: 6.25 mg/kg/injection, schedule: Q01DX009 (ip), vehicle: water",151 % of control and 152 % of control
same,T/C,"dose: 12.5 mg/kg/injection, schedule: Q01DX009 (ip), vehicle: water",153 % of control and 183 % of control
Fc1c(F)c(F)c(SN=S=Nc2ccccc2)c(F)c1F,T/C,[2],106 % of control
same,T/C,[3],108 % of control
Nc1[nH]c(=O)ncc1C(=O)NC(CO)C(=O)O (configuration not stated),T/C,[12],90 % of control
same,T/C,[13],100 % of control
same,T/C,[14],95 % of control
O=C(O)c1ccccc1Nc1cccc(C(F)(F)F)c1,T/C,[13],103 % of control
same,T/C,[14],98 % of control
same,T/C,"dose: 50.0 mg/kg/injection, schedule: Q01DX009 (ip), vehicle: saline with Tween-80",97 % of control
same,T/C,"dose: 100.0 mg/kg/injection, schedule: Q01DX009 (ip), vehicle: saline with Tween-80",107 % of control
CCOC(=O)N/N=C/c1ccc2c(c1)c1ccccc1n2CC,T/C,[2],90 % of control
same,T/C,[3],98 % of control
same,T/C,[4],90 % of control
CCCCCCCCCc1cccc(N2C(N)=NC(N)=NC2(C)C)c1,T/C,"dose: 7.5 mg/kg/injection, schedule: Q01DX005 (ip), vehicle: saline with Tween-80",106 % of control
CC(=O)OCCN1CCN(CCCN2c3ccccc3Sc3ccc(C(F)(F)F)cc32)CC1,T/C,"dose: 100.0 mg/kg/injection, schedule: Q04DX002 (ip), vehicle: saline",89 % of control and 90 % of control
COC(=O)c1cc(-c2ccc([N+](=O)[O-])cc2)n2c(N)nnc2n1,T/C,[10],92 % of control
same,T/C,[11],86 % of control
COC(=O)C1(CS(C)(=O)=O)NC(=S)NC(=O)C1C#N (configuration not stated),T/C,"dose: 60.0 mg/kg/injection, schedule: Q01DX005 (ip), vehicle: saline",97 % of control
same,T/C,"dose: 120.0 mg/kg/injection, schedule: Q01DX005 (ip), vehicle: saline",91 % of control
same,T/C,"dose: 240.0 mg/kg/injection, schedule: Q01DX005 (ip), vehicle: saline",91 % of control
COc1cccc(/C=N/Nc2cc(C)nc3cc4c(cc23)OCO4)c1,T/C,[8],104 % of control
same,T/C,[9],97 % of control
same,T/C,[1],100 % of control and 87 % of control
same,T/C,[2],100 % of control and 102 % of control and 96 % of control
same,T/C,[3],95 % of control
CCOC(=O)CC1(C)NCCS1 (configuration not stated),T/C,[5],96 % of control
same,T/C,[6],99 % of control
same,T/C,[7],96 % of control
Cc1ccc(S(=O)(=O)OCC(C)(C)COS(=O)(=O)c2ccc(C)cc2)cc1,T/C,"dose: 3.13 mg/kg/injection, schedule: Q01DX009 (ip), vehicle: saline with Tween-80",103 % of control
same,T/C,[12],103 % of control
same,T/C,[13],105 % of control
same,T/C,[14],106 % of control
